Tested on: hypertensive patients
Assay: Pharmacogenomic study: change of office systolic blood pressure (DSBP5_0) after 5 weeks of rostafuroxin vs placebo, by genotype
Type: in vivo, human
Conditions: for response (average blood pressure change): individuals carrying all core SNPs; for Delta DSBP5_0: therapy vs placebo
Method: A pharmacogenomic study was performed to ascertain the effect of genetic variations on an individual response to rostafuroxin. The sample for the pharmacogenomic study consisted of 342 individuals that were genotyped with the Human1M array from Illumina using Human1M Duo CHIP genotyping Bead Chip according to procedure described in [Ref. 10, 11, 12]. Among the individuals, 169 were administered the placebo treatment and 173 the active drug (rostafuroxin) in the first period (5 weeks) with demographics as in [Ref 13]. In particular, patients were randomized to one of the following oral doses of rostafuroxin: 0.05, 0.15, 0.5, 1.5, or 5 mg/day for 5 weeks. Each dose had to be compared to a placebo in a crossover design.
For the above sample of individuals a genetic association analysis, was performed to associate the phenotype of the tested individuals with the SNPs detected in the individuals. The selected phenotype of interest was the blood pressure response. The SNPs selected for detection were the 1111170 SNPs on autosomal chromosomes of the individual.
The genetic analysis was performed according to a quantitative genetic association design where the phenotype of interest is a quantitative variable (QT), and the variables (factors) affecting the distribution of the phenotype of interest are SNPs, therapy (placebo, rostafuroxin) and the SNP*therapy interaction.
In particular, the quantitative phenotype selected for the statistical analyses was the difference in mmHg between the office Systolic Blood Pressure (SBP) at the end of first treatment period (SBP_5) and the office Systolic Blood Pressure at baseline after one month of run-in (SBP_0) and is herein also identified as DSBP5_0. The selected QT phenotype and other factors affecting distribution of the phenotype of interest were then analyzed according to the following quantitative trait interaction test Phenotype=SNP+therapy+SNP*therapy as illustrated in further details below.
In particular, in Table 2 the descriptive statistics of DSBP5_0 for the entire sample and for the patients treated with placebo and rostafuroxin are listed. The rather modest basal level of SBP can be explained in view of the recruitment of patients with “mild” hypertension (SBP range 140-179 mmHg), required by the inclusion of a placebo arm.
Those SNPs were further selected to identify the genotypes with the largest response to rostafuroxin compared to placebo by performing a Statistical ANOVA analysis using STATA software in placebo and rostafuroxin with DSBP5_0 as dependent variable and the candidate significant SNPs as independent variables. In particular, to select the genotypes of the interactions between two SNPs with the largest response to rostafuroxin compared to placebo, the Applicants performed an ANOVA statistics in placebo and rostafuroxin with DSBP5_0 as dependent variable and the interaction s between SNPs as independent variables. The Applicants report an example of this procedure in FIG. 5: interaction between rs8899 and rs4678. The Applicants selected the interaction between the genotype AA of rs8899 and the genotype BB of rs4678 because it presents the greatest remarkable decrement in the therapy group and not in the placebo group.
In particular, to select the genotypes with the largest response to rostafuroxin compared to placebo, the Applicants performed an ANOVA statistics (oneway) in placebo and rostafuroxin with DSBP5_0 as dependent variable and the significant SNPs as independent variables.

[1] = GWS SNP rs9361863 (LOC728360) genotype 2
[2] = GWS SNP rs9893372 (ATP2A3) genotype 3
[3] = GWS SNP rs10159569 (SH3PXD2A) genotype 1
[4] = GWS SNP rs10493940 (SLC30A7) genotype 2
[5] = GWS SNP rs10493940 (SLC30A7) genotype 3
[6] = GWS SNP rs12513375 (TTC29) genotype 3
[7] = GWS SNP rs12996186 (ARL5A) genotype 2
[8] = GWS SNP rs16877182 (THSD7A) genotype 2
[9] = GWS SNP rs16893522 (FAM46A) genotype 1
[10] = GWS SNP rs16893522 (FAM46A) genotype 2
[11] = GWS SNP rs17414954 (VCAM1) genotype 2
[12] = individuals carrying the genetic variations
[13] = interaction ADD2 rs4984 CC x TOP rs10502933 CT
[14] = interaction HSD19 rs947130 GG x NEDD4L rs4309483 AA
[15] = interaction HSD19 rs947130 GG x NKAIN3 rs4739037 GA
[16] = interaction LSS2 rs914247 AA x ADD1 rs4961 GT + TT
[17] = interaction LSS2 rs914247 AA x WNK1 rs880054 AG + GG
[18] = interaction LSS2 rs914247 GA + AA x MDR2 rs1045642 CC
[19] = interaction MDR2 rs1045642 TT x AGTR1 rs2131127 CC
[20] = interaction MDR2 rs1045642 TT x HSD18 rs10923835 AT + TT

For `C[C@]12CC[C@H](O)C[C@H]1CC[C@@H]1[C@@H]2CC[C@]2(C)[C@@](O)(c3ccoc3)CC[C@]12O` [rostafuroxin, 17β-(3-furyl)-5β-androstane-3β,14β,17α-triol], the DSBP5_0 therapy (GWS SNP rs9361863 (LOC728360) genotype 1) was −15 mmHg, the “DELTA delta Therapy placebo” value [1] was 8.833 mmHg and the DSBP5_0 therapy [1] was −13.48 mmHg. The “DELTA delta Therapy placebo” value [2] was 4.434 mmHg, the DSBP5_0 therapy [2] was −10.91 mmHg and the “DELTA delta Therapy placebo” value [3] was 10.63 mmHg. For the same molecule, the DSBP5_0 therapy [3] was −13.17 mmHg, the “DELTA delta Therapy placebo” value [4] was 5.95 mmHg and the DSBP5_0 therapy [4] was −12.13 mmHg. For the same molecule, the “DELTA delta Therapy placebo” value [5] was 28.95 mmHg, the DSBP5_0 therapy [5] was −25 mmHg and the “DELTA delta Therapy placebo” value [6] was 15.93 mmHg. The DSBP5_0 therapy [6] was −19.18 mmHg, the “DELTA delta Therapy placebo” value [7] was 17.96 mmHg and the DSBP5_0 therapy [7] was −22.79 mmHg. For the same molecule, the “DELTA delta Therapy placebo” value [8] was 18.85 mmHg, the DSBP5_0 therapy [8] was −21.67 mmHg and the “DELTA delta Therapy placebo” value [9] was 27.03 mmHg. For the same molecule, the DSBP5_0 therapy [9] was −22.43 mmHg, the “DELTA delta Therapy placebo” value [10] was 2.874 mmHg and the DSBP5_0 therapy [10] was −1.138 mmHg. For the same molecule, the “DELTA delta Therapy placebo” value [11] was 7.158 mmHg, the DSBP5_0 therapy [11] was −13.03 mmHg and the “Mean fall in blood pressure mmHg (DSBP5_0)” value (all never previously treated (NPT) patients on therapy (99 IDs), 5 weeks, no genotype selection) was −5.831 mmHg. For the same molecule, the “DSBP5_0 therapy” value (carriers rs914247 (LSS2) AA (CAND 1 SNP)) was −17 mmHg, the “DSBP5_0 therapy” value (carriers rs2345088 TT (Illumina genotype 1), NPT patients, 5 weeks) was −30.5 mmHg and the “DSBP5_0 therapy” value (carriers rs2461911 AA (Illumina genotype 1), NPT patients, 5 weeks) was −20.6 mmHg. For the same molecule, the “DSBP5_0 therapy” value (carriers rs5013093 TT (Illumina genotype 1), NPT patients, 5 weeks) was −20.49 mmHg, the “DSBP5_0 therapy” value (carriers rs12513375 TT (Illumina genotype 3), NPT patients, 5 weeks) was −19.18 mmHg and the “DSBP5_0 therapy” value (carriers rs16877182 C/T (Illumina genotype 2), NPT patients, 5 weeks) was −21.67 mmHg. For the same molecule, the “DSBP5_0 therapy” value (carriers rs16893522 AA (Illumina genotype 1), NPT patients, 5 weeks) was −22.43 mmHg, the “response (average blood pressure change)” value (high dosages) was −15 mmHg and the “average decrease in systolic blood pressure” value (high doses (1.5; 5.0 mg/day), individuals carrying the genetic variations) was −12 mmHg. The “average decrease in nightly blood pressure” value [12] was ≥ 9 mmHg, the “average decrease in office blood pressure” value [12] was “at least 15 mmHg” and the “DSBP50 ROSTAFUROXIN” value [13] was “.−19.21 mmHg”. The “Delta Rosta_placebo” value [13] was 24.73 mmHg, the “DSBP50 ROSTAFUROXIN” value [14] was “.−17.85 mmHg” and the “Delta Rosta_placebo” value [14] was 28.15 mmHg. The “DSBP50 ROSTAFUROXIN” value [15] was “.−18.18 mmHg”, the “Delta Rosta_placebo” value [15] was 15.72 mmHg and the “DSBP50 ROSTAFUROXIN” value [16] was “.−22.32 mmHg”. The “Delta Rosta_placebo” value [16] was 27.49 mmHg, the “DSBP50 ROSTAFUROXIN” value [17] was “.−16 mmHg” and the “Delta Rosta_placebo” value [17] was 16.48 mmHg. The “DSBP50 ROSTAFUROXIN” value [18] was “.−16.91 mmHg”, the “Delta Rosta_placebo” value [18] was 12.96 mmHg and the “DSBP50 ROSTAFUROXIN” value [19] was “.−16.9 mmHg”. For the same molecule, the “Delta Rosta_placebo” value [19] was 14.34 mmHg, the “DSBP50 ROSTAFUROXIN” value [20] was “.−17.40 mmHg” and the “Delta Rosta_placebo” value [20] was 17.30 mmHg. For the same molecule, the “response (average blood pressure change)” value (low dosages) was −23 mmHg, the “average decrease in systolic blood pressure” value (lower doses (0.05; 0.15; 0.5 mg/day), individuals carrying the genetic variations) was “approximately 18 mmHg” and the “Delta DSBP5_0” value (carriers rs2345088 TT (genotype 1)) was 33.93, mmHg. The “Delta DSBP5_0” value (carriers rs2461911 AA (genotype 1)) was 22.82, mmHg, the “Delta DSBP5_0” value (carriers rs5013093 TT (genotype 1)) was 22.09, mmHg and the “Delta DSBP5_0” value (carriers rs12513375 TT (genotype 3)) was 15.93, mmHg. The “Delta DSBP5_0” value (carriers rs16877182 C/T (genotype 2)) was 18.85, mmHg, the “Delta DSBP5_0” value (carriers rs16893522 AA (genotype 1)) was 27.03, mmHg and the “tolerability and quality of life” value (treated individuals, trial results) was “good tolerability and quality of life”.
